Data on 1 substance can be found in patent US20180258459A1, “NITRATE BIOSENSOR” (priority 2015, published 2018).

This experiment deals with NarL associated promoter. As to the kind of experiment: transfer of natural NarL with its associated promoter into B. subtilis. It counts as cell-based. Conditions: natural NarL protein with its associated promoter, previous attempts.

Regarding “NarL: response regulator (RR) protein NarL from E. coli (UniProt P0AF28)”, the “functional transcription in B. subtilis” value is reported as “failed to result in functional transcription”.
